The results in this text go back to ChEMBL document CHEMBL1121976, “Structure-activity relationships for hallucinogenic N,N-dialkyltryptamines: photoelectron spectra and serotonin receptor affinities of methylthio and methylenedioxy derivatives” (J Med Chem, 1982).

SMILES strings stand for the structures.

For the test, the species on record is Rattus norvegicus. Nature of the test: The ability to inhibit the 5-HT-induced contraction of isolated rat fundus muscle was determined. The test is classed as functional. The settings on record: read-out: pA2 (converted).
`COc1cccc2[nH]cc(CCN(C)C)c12`: the Kb is 0.676 µM.
As to `CSc1cccc2[nH]cc(CCN(C)C)c12`, the Kb was 0.617 µM.
`COc1ccc2[nH]cc(CCN(C)C)c2c1` [MEBUFOTENIN]: the Kb was 0.0832 µM.
As to `CN(C)CCc1c[nH]c2ccccc12` [N,N-DIMETHYLTRYPTAMINE], the Kb was 1 µM.
Regarding `CSc1ccc2c(CCN(C)C)c[nH]c2c1`, the Kb is 1.2 µM.
As to `COc1ccc2c(CCN(C)C)c[nH]c2c1`, the Kb was 1.7 µM.
Regarding `CN(C)CCc1c[nH]c2ccc3c(c12)OCO3`, the Kb was 0.398 µM.
As for `CSc1ccc2[nH]cc(CCN(C)C)c2c1`, the Kb was 0.145 µM.
With `CN(C)CCc1c[nH]c2cc3c(cc12)OCO3`, the Kb was 1.02 µM.
